As usually defined, the Kd is the equilibrium constant for the complex coming apart.

Positions count from the first letter of the chain named.

Data set [1] concerns the target T1, D42A (Caulobacter vibrioides, UniProt Q9A6C9, D42A).
T1 construct: gene mipZ; hexahistidine-tagged, full length, overproduced in E. coli Rosetta2(DE3)pLysS
T1 sequence (Q9A6C9 1-278 D42A): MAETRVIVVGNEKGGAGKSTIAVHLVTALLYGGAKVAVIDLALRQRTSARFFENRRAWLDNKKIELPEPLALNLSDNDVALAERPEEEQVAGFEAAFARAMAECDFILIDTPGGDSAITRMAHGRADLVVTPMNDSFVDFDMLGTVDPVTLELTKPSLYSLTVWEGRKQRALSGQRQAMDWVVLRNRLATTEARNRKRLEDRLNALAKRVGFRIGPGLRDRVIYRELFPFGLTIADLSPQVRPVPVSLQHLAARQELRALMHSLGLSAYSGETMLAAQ
Description: Stopped-flow FRET transient kinetics of mant-ADP binding to MipZ (excitation 297 nm, 360 nm cut-off) at 30 °C in 50 mM Hepes/NaOH pH 7.2, 50 mM KCl, 10 mM MgCl2, 1 mM β-mercaptoethanol; KD calculated as koff/kon, with koff from displacement by excess unlabeled nucleotide. The text has this: (§1) Once released from the dimeric complex, MipZ monomers must undergo nucleotide exchange to enter the next reaction cycle (Figure 2A). To clarify the requirements for the exchange reaction, we studied the nucleotide binding kinetics of MipZ by monitoring its interaction with methylanthraniloyl (mant)-labeled ADP and ATP analogs (Figure S3). Since the mant group blocks dimer formation, our measurements specifically focused on the initial nucleotide-binding step without interference from subsequent reactions.
(§2) Figure S3. Steady-state and transient kinetic analysis of nucleotide binding to MipZ, Related to Table 2.
(§3) (A) Fluorescence emission spectra of mant-ATP. MipZ (1 µM) and/or mant-ATP (60 µM) were mixed in buffer BC containing no (+ Mg2+) or 10 mM (- Mg2+) EDTA. Emission spectra were recorded in a PC1 photon-counting spectrofluorimeter (ISS) using fluorescence resonance energy transfer (FRET) and an excitation wavelength of 290 nm.
(§4) (B) Association of MipZ with mant nucleotides.
(§5) (data not shown), necessitating the use of ADP and ATP analogues that carried a fluorescent methylanthraniloyl (mant) group attached to the 2'- or 3'-hydroxy group of the ribose moiety. Due to the bulkiness of the mant group and a critical role of these hydroxy groups in MipZ dimerization, the modified nucleotides are predicted to block dimer formation, consistent with their failure to be hydrolyzed by MipZ or mediate MipZ self-association in the SPR assay (data not shown). This circumstance allowed us to focus the measurements on the initial nucleotide binding step without interference from subsequent reactions.
(§6) Interaction of the mant group with the protein surface led to a marked increase in fluorescence (panel A). Consistent with the easy accessibility of the nucleotide-binding site and the lack of major conformational changes, the transients recorded after rapid mixing of MipZ with mant nucleotides could be fitted to single-exponential equations, indicating single-step binding reactions.
(§7) Shown is a typical curve representing the change in mant fluorescence upon binding of mant-ATP (30 µM) to MipZ (1 µM).
(§8) Fitting of the data yielded a pseudo-first order rate constant (kobs) of 4.7 s-1. […]
(§9) determining the second-order rate constant of the association reaction. Shown is a representative graph in which the kobs values measured for mant-ATP were plotted against the corresponding mant-ATP concentrations. […]
(§10) (D) Dissociation of mant nucleotides from MipZ. In order to determine the dissociation rate constants (koff), we monitored the displacement of mant-labeled nucleotides from MipZ by an excess of unlabeled nucleotide. […] Shown is a typical curve representing the change in mant fluorescence upon dissociation of mant-ATP (30 µM) from MipZ (1 µM) in the presence of 2 mM ATP. […]

For data set [2], the target named is T2, WT (MipZ) (Caulobacter vibrioides, UniProt Q9A6C9).
T2 construct: hexahistidine-tagged, full length, overproduced in E. coli Rosetta2(DE3)pLysS
T2 sequence (Q9A6C9 1-278): T1 sequence (Q9A6C9 1-278 D42A) with A42D
Described as above.
Text: as §1, §2, §3, §4, §5, §6, §7, §8, §9, §10

In data set [3] the target is T3, G14V (Caulobacter vibrioides, UniProt Q9A6C9, G14V).
T3 construct: gene mipZ; hexahistidine-tagged, full length, overproduced in E. coli Rosetta2(DE3)pLysS; constitutively monomeric
T3 sequence (Q9A6C9 1-278 G14V): T1 sequence (Q9A6C9 1-278 D42A) with G14V, A42D
The description is as above.
Text: as §1, §2, §3, §4, §5, §6, §7, §8, §9, §10

For data set [4], the target named is T4, K13A (Caulobacter vibrioides, UniProt Q9A6C9, K13A).
T4 construct: gene mipZ; hexahistidine-tagged, full length, overproduced in E. coli Rosetta2(DE3)pLysS; constitutively monomeric
T4 sequence (Q9A6C9 1-278 K13A): T1 sequence (Q9A6C9 1-278 D42A) with K13A, A42D
The description is as above.
Text: as §1, §2, §3, §4, §5, §6, §7, §8, §9, §10

Data set [5] deals with T1, D42A. Put plainly: Stopped-flow FRET transient kinetics of mant-ATP binding to MipZ (excitation 297 nm, 360 nm cut-off) at 30 °C in 50 mM Hepes/NaOH pH 7.2, 50 mM KCl, 10 mM MgCl2, 1 mM β-mercaptoethanol; KD calculated as koff/kon, with koff from displacement by excess unlabeled nucleotide.
Text: as §1, §2, §3, §4, §5, §6, §7
(§11) Fitting of the data yielded a pseudo-first order rate constant (kobs) of 4.7 s-1.
(§12) (C) Determination of the second-order association rate constants (kon). The pseudo-first order rate constants for the association of […]
(§13) determining the second-order rate constant of the association reaction. Shown is a representative graph in which the kobs values measured for mant-ATP were plotted against the corresponding mant-ATP concentrations. Fitting of the data to the linear function kobs=kon[mant-ATP]+koff yielded a value of 6.8 x 104 M-1s-1 for kon.
(§14) (D) Dissociation of mant nucleotides from MipZ. In order to determine the dissociation rate constants (koff), we monitored the displacement of mant-labeled nucleotides from MipZ by an excess of unlabeled nucleotide. All transients obtained could be fitted to single-exponential functions. Shown is a typical curve representing the change in mant fluorescence upon dissociation of mant-ATP (30 µM) from MipZ (1 µM) in the presence of 2 mM ATP. […]

The target in data set [6] is T2, WT (MipZ). The description is as above.
Text: as §1, §2, §3, §4, §5, §6, §7, §11, §12, §13, §14

Data set [7] has as its target T3, G14V. The description is as above.
Text: as §1, §2, §3, §4, §5, §6, §7, §11, §12, §13, §14

Data set [8] concerns the target T4, K13A. The data set is described as above.
Text: as §1, §2, §3, §4, §5, §6, §7, §11, §12, §13, §14

Another data set concerns the target T5, K18Q (Caulobacter vibrioides, UniProt Q9A6C9, K18Q).
T5 construct: gene mipZ; hexahistidine-tagged, full length, overproduced in E. coli Rosetta2(DE3)pLysS; constitutively monomeric
T5 sequence (Q9A6C9 1-278 K18Q): T1 sequence (Q9A6C9 1-278 D42A) with K18Q, A42D
The data set is described as above.
Text: as §1, §2, §3, §4, §5, §6, §7, §11, §12, §13, §14

Another data set concerns the target T6, MipZ (Caulobacter crescentus, UniProt Q9A6C9 1-278).
T6 sequence: T1 sequence (Q9A6C9 1-278 D42A) with A42D
Put plainly: SPR; 2 mM ATP, Mg2+; koff 1.5 min-1 (Fig S5C); SPR: buffer P2 or buffer BC (Mg2+-containing) with 2 mM nucleotide, composition not in material; EMSA: 1.25 mM nucleotide, 270 nM-5.6 uM protein, room temperature. The settings on record: protein: recombinant; chain copies: 2; label: biotin (immobilized); blunt. Background: In SPR one partner is held on a chip, and binding of the other changes the refractive index at the surface.

For a further data set, the target named is T7, MipZ-D42A (Caulobacter crescentus, UniProt Q9A6C9 1-278, D42A).
T7 sequence: T1 sequence (Q9A6C9 1-278 D42A)
Description: SPR; ATP; slower dissociation than WT; SPR: buffer P2 or buffer BC (Mg2+-containing) with 2 mM nucleotide, composition not in material; EMSA: 1.25 mM nucleotide, 270 nM-5.6 uM protein, room temperature. The note with it: protein: recombinant; chain copies: 2; label: biotin (immobilized); blunt.

Another data set concerns the target T8, ParB (Caulobacter crescentus, UniProt B8GW30 1-304).
T8 sequence: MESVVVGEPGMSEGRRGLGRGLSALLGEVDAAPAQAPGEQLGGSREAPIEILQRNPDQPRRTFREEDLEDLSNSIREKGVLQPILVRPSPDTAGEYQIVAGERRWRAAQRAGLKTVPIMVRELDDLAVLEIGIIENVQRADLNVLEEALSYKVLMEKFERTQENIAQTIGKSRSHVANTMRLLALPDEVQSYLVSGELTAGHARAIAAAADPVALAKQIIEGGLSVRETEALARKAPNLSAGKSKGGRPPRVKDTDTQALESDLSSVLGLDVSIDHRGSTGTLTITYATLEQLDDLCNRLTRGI
Description: SPR; ParB alone; SPR: buffer P2 or buffer BC (Mg2+-containing) with 2 mM nucleotide, composition not in material; EMSA: 1.25 mM nucleotide, 270 nM-5.6 uM protein, room temperature. The note with it: protein: recombinant; tags: none (native ParB); chain copies: 2; label: biotin (immobilized); blunt.

Take `CNc1ccccc1C(=O)O[C@H]1[C@@H](O)[C@H](n2cnc3c(N)ncnc32)O[C@@H]1COP(=O)(O)OP(=O)(O)O` [mant-ADP, 2'/3'-O-methylanthraniloyl-ADP (methylanthraniloyl-labeled ADP)]: the Kd at D42A [1] is 69 µM; at WT (MipZ) [2] it was 26 µM; on G14V [3], 4.5 µM; on K13A [4], 41 µM.
In the case of `CNc1ccccc1C(=O)O[C@H]1[C@@H](O)[C@H](n2cnc3c(N)ncnc32)O[C@@H]1CO[P@@](=O)(O)O[P@](=O)(O)OP(=O)(O)O` [mant-ATP, 2'/3'-O-methylanthraniloyl-ATP (methylanthraniloyl-labeled ATP)], the Kd is 58 µM on D42A [5]; 31 µM at WT (MipZ) [6]; 1.3 µM at G14V [7]; 38 µM at K13A [8]; 121 µM at K18Q.

B1: ran2 (dsDNA)
DNA 1: GTCGACAGAGTTCGCTAACATCGAGC
DNA 2: GCTCGATGTTAGCGAACTCTGTCGAC
On to B1, for which the figures for the binding result with MipZ, in the data set with MipZ-D42A and in the data set with ParB were “binds”, “binds” and “no binding”, respectively.

(Values after paper PMC3355305, “Localized Dimerization and Nucleoid Binding Drive Gradient Formation by the Bacterial Cell Division Inhibitor MipZ” (Molecular Cell, 2012).)
